In paper PMC10503972, “Synthesis, predictions of drug-likeness, and pharmacokinetic properties of some chiral thioureas as potent enzyme inhibition agents” (Turkish Journal of Chemistry, 2021):

Columns and labels:
tyrosinase = experiment: Tyrosinase inhibitory activity; assay type: biochemical; conditions: means ± S.E.M. of three parallel measurements
Procedure: The spectrophotometric analysis of tyrosinase inhibitory activities was performed according to the slightly modified literature procedures of Hearing.

[1] = target: acetylcholinesterase (AChE) from electric eel (Electrophorus electricus, UniProt O42275); conditions: read-out: AChE assay IC50; means ± S.E.M. of three parallel measurements
Procedure: (§1) Herein, acetylcholinesterase (AChE) from electric eel and butyrylcholinesterase (BChE) horse serum was used. The acetylthiocholine iodide and butyryl thiocholine chloride were utilized as substrates.
(§2) The bioactivity tests were carried out in triplicate at four different concentrations. Results are given as IC50 (μg/mL). The data were the mean ± S.E.M. (standard error of the meaning) of triplicate analyses of each concentration under the 95 % reliability (p < 0.05).

[2] = target: butyrylcholinesterase (BChE) horse serum (Equus caballus, UniProt P81908); experiment: Anticholinesterase inhibitory activity, BChE assay (Ellman's method); conditions: read-out: BChE assay IC50; means ± S.E.M. of three parallel measurements
Procedure: as §1, §2

urease = urease (Canavalia ensiformis, UniProt P07374); conditions: read-out: Urease assay IC50; means ± S.E.M. of three parallel measurements
urease, sequence (P07374 whole entry, looked up): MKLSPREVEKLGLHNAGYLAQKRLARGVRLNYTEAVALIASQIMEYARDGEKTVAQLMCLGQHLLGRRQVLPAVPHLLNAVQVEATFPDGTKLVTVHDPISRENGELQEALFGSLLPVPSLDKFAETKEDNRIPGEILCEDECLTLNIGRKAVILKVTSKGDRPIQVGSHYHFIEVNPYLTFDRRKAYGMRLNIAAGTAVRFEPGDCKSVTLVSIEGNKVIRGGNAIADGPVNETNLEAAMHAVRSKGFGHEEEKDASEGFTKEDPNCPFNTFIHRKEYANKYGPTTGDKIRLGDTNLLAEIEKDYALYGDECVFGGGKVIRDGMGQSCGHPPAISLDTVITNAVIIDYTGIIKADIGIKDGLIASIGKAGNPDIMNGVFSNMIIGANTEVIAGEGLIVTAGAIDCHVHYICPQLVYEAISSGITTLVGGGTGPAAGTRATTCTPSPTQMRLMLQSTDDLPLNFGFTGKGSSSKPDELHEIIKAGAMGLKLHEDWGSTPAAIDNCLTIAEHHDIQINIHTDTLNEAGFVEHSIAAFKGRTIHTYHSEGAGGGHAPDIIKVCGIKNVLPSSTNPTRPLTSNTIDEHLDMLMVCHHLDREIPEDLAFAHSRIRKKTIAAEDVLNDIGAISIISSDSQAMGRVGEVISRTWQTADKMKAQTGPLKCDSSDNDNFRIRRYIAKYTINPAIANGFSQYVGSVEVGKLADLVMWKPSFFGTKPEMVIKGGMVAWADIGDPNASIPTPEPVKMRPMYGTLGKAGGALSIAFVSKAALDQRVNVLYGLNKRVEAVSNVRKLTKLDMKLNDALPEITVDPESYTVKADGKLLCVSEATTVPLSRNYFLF
Procedure: Solutions of chiral thioureas (1 – 17) were prepared at four different concentrations, i.e., 400, 200, 100, and 50 μM for urease inhibitory assay in EtOH. Additionally, EtOH was used as a control, while thiourea was used as urease standards. […] The spectrophotometric analysis of urease inhibitory activity was performed according to the literature procedures by measuring ammonia production using the indophenol method as described earlier [37].
as §2

butyrylcholinesterase (BChE) horse serum, sequence (P81908 whole entry): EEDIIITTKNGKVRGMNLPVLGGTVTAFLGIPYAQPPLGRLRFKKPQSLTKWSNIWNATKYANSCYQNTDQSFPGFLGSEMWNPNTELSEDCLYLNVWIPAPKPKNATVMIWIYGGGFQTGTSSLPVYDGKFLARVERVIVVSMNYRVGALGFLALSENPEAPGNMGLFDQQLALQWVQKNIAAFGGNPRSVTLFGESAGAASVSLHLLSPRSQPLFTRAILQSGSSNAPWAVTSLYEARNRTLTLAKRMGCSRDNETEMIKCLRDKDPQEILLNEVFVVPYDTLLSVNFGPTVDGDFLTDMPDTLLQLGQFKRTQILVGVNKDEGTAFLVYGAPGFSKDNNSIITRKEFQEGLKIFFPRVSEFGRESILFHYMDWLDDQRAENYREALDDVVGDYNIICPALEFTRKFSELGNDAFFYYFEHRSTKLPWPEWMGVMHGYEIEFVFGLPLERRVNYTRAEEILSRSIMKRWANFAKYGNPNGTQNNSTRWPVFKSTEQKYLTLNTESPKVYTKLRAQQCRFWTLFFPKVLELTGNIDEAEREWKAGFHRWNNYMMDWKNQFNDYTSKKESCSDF
acetylcholinesterase (AChE) from electric eel, sequence (O42275 24-633): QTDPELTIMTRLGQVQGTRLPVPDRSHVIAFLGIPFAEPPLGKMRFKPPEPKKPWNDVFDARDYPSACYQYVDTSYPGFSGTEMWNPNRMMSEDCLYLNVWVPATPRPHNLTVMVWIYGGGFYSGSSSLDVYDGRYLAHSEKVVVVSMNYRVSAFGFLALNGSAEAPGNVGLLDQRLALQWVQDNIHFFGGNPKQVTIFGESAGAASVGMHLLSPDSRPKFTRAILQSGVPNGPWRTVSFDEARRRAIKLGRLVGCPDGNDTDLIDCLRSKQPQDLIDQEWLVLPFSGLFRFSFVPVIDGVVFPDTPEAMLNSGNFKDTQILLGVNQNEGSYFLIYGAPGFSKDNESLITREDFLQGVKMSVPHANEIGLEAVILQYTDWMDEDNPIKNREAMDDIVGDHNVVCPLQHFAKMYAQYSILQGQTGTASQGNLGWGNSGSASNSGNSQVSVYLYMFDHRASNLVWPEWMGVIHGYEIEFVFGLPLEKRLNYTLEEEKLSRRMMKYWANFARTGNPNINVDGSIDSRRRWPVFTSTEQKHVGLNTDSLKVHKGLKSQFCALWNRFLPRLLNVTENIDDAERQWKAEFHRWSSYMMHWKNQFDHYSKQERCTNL

N-(4-methoxyphenyl)-N′-(2-mercapto-carboxyethanyl)thiourea [Compound 6]
IC50 (tyrosinase): 1.9 ± 0.5 mM
IC50 [1]: 8.1 ± 0.9 µM
IC50 [2]: 58.2 ± 0.1 µM

N-(4-bromophenyl)-N′-(2-mercapto-carboxyethanyl)thiourea [Compound 2]
IC50 (tyrosinase): 28.8 ± 0.1 mM
IC50 [1]: 36.4 ± 0.2 µM
IC50 [2]: 75.1 ± 0.5 µM

N-(4-chlorophenyl)-N′-(2-mercapto-carboxyethanyl)thiourea [Compound 3]
IC50 (tyrosinase): 16.1 ± 0.9 mM
IC50 [1]: 31.7 ± 0.8 µM
IC50 [2]: 72.8 ± 1.1 µM

N-(2,4-dimethoxyphenyl)-N′-(2-mercapto-carboxyethanyl)thiourea [Compound 10]
IC50 (tyrosinase): 1.5 ± 0.3 mM
IC50 [1]: 6.8 ± 1.1 µM
IC50 [2]: 45.8 ± 0.4 µM

N-(3,5-dimethoxyphenyl)-N′-(2-mercapto-carboxyethanyl)thiourea [Compound 13]
IC50 (tyrosinase): 2.2 ± 0.4 mM
IC50 [1]: 5.7 ± 1 µM
IC50 [2]: 37.2 ± 0.1 µM

N-(2,5-dichlorophenyl)-N′-(2-mercapto-carboxyethanyl)thiourea [Compound 15]
IC50 (tyrosinase): 22.2 ± 0.9 mM
IC50 [1]: 44.6 ± 0.3 µM
IC50 [2]: 82.9 ± 0.4 µM

N-(4-cyanophenyl)-N′-(2-mercapto-carboxyethanyl)thiourea [Compound 7]
IC50 (tyrosinase): 35 ± 1.1 mM
IC50 [1]: 46.8 ± 1.3 µM
IC50 [2]: 84.4 ± 0.9 µM

N-(3,4,5-trimethoxyphenyl)-N′-(2-mercapto-carboxyethanyl)thiourea [Compound 14]
IC50 (tyrosinase): 1.1 ± 0.1 mM
IC50 [1]: 4.8 ± 0.9 µM
IC50 [2]: 29.5 ± 1.1 µM

N-phenyl-N′-(2-mercapto-carboxyethanyl)thiourea [Compound 1]
IC50 (tyrosinase): 9.7 ± 1 mM
IC50 [1]: 23.4 ± 1.2 µM
IC50 [2]: 66 ± 0.1 µM

N-(4-(trifluoromethyl)phenyl)-N′-(2-mercapto-carboxyethanyl)thiourea [Compound 5]
IC50 (tyrosinase): 10.4 ± 0.2 mM
IC50 [1]: 16.7 ± 0.2 µM
IC50 [2]: 64.3 ± 0.7 µM

N-(5-chloro-2-methoxyphenyl)-N′-(2-mercapto-carboxyethanyl)thiourea [Compound 8]
IC50 (tyrosinase): 4 ± 0.6 mM
IC50 [1]: 9.5 ± 1.2 µM
IC50 [2]: 61.2 ± 0.5 µM

NC(N)=S [Thiourea]
IC50 (urease): 24.2 ± 0.3 µM

N-(2-chloro-5-(trifluoromethyl)phenyl)-N′-(2-mercapto-carboxyethanyl)thiourea [Compound 9]
IC50 (tyrosinase): 15.7 ± 0.5 mM
IC50 [2]: 80 ± 0.6 µM

N-(3,4-dimethoxyphenyl)-N′-(2-mercapto-carboxyethanyl)thiourea [Compound 12]
IC50 (tyrosinase): 1.6 ± 0.6 mM
IC50 [1]: 7.8 ± 0.6 µM
IC50 [2]: 54 ± 1.3 µM

N-(4-fluorophenyl)-N′-(2-mercapto-carboxyethanyl)thiourea [Compound 4]
IC50 (tyrosinase): 12.5 ± 0.3 mM
IC50 [1]: 28.5 ± 0.5 µM
IC50 [2]: 70.4 ± 0.9 µM

N-(4-(diethylamino)phenyl)-N′-(2-mercapto-carboxyethanyl)thiourea [Compound 17]
IC50 (tyrosinase): 5.3 ± 0.8 mM
IC50 [1]: 3.9 ± 0.6 µM
IC50 [2]: 18.1 ± 0.5 µM

N-(4-(dimethylamino)phenyl)-N′-(2-mercapto-carboxyethanyl)thiourea [Compound 16]
IC50 (tyrosinase): 4.7 ± 0.3 mM
IC50 [1]: 4.2 ± 0.6 µM
IC50 [2]: 24.6 ± 0.7 µM

N-(2,5-dimethoxyphenyl)-N′-(2-mercapto-carboxyethanyl)thiourea [Compound 11]
IC50 (tyrosinase): 2.9 ± 0.2 mM
IC50 [1]: 7.2 ± 0.5 µM
IC50 [2]: 49.7 ± 0.9 µM
